Measured values as given in PubChem BioAssay (NCI).
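Test compounds were applied to cells in 96-well plates for 48 hours at 5 doses. TGI denotes the concentration required for complete inhibition of growth.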

Test system: SF-539 CNS
Assay: NCI tumour cell line growth inhibition, 48 h

`CCN(CC)C1CC(O[C@H]2C[C@](O)(C(=O)CO)Cc3c(O)c4c(c(O)c32)C(=O)c2c(OC)cccc2C4=O)OC(C)C1O` (some centres undefined) was tested. Which TGI did it give?
Its TGI is 204 nM.

Test system: DLD-1 colon
Assay: NCI tumour cell line growth inhibition, 48 h

For `CC(=O)O[C@H]1CCC2[C@@H]3CC[C@]4(C)CC(=O)C=C[C@]4(C)C3CC[C@@]21C` (some centres undefined), which TGI is on record?
Its TGI is 56.9 µM.

How did the TGI turn out when `O=C(CCc1nc(=S)[nH][nH]1)Nc1ccccc1Cl` was run?
The TGI was greater than 100 µM.

`O=C(CC(=O)n1nc(-c2ccccc2)c(N=Nc2ccc(Cl)cc2)c1-c1ccccc1)Nc1ccc(Cl)cc1` was tested. Which TGI did it give?
Its TGI is 44.7 µM.

For `COc1cc2cc3c4cc(OC)c(OC)cc4cc[n+]3c(C)c2cc1OC` (tested in a mixture with another compound), which TGI is on record?
The TGI was greater than 100 µM.

`CCN(CC)C1CC(O[C@H]2C[C@](O)(C(=O)CO)Cc3c(O)c4c(c(O)c32)C(=O)c2c(OC)cccc2C4=O)OC(C)C1O` (some centres undefined) was tested. Which TGI did it give?
The TGI was 0.26 µM.

Test system: A549 NSCLC
Assay: NCI tumour cell line growth inhibition, 48 h

How did the TGI turn out when `CC(=O)O[C@H]1CCC2[C@@H]3CC[C@]4(C)CC(=O)C=C[C@]4(C)C3CC[C@@]21C` (some centres undefined) was run?
The TGI was 37.9 µM.

How did the TGI turn out when `O=C(CCc1nc(=S)[nH][nH]1)Nc1ccccc1Cl` was run?
Its TGI is greater than 100 µM.

`O=C(CC(=O)n1nc(-c2ccccc2)c(N=Nc2ccc(Cl)cc2)c1-c1ccccc1)Nc1ccc(Cl)cc1` was tested. Which TGI did it give?
Its TGI is greater than 60.6 µM.

How did the TGI turn out when `COC(=O)C12CC3CC(CC(C(=O)O)(C3)C1)C2` was run?
The TGI was greater than 100 µM.

Which TGI does the source give for `CCCCCCc1cc(C(=O)Nc2ccc(Cl)cc2)nc(=S)[nH]1` here?
Its TGI is greater than 100 µM.

Which TGI does the source give for `COc1cc2cc3c4cc(OC)c(OC)cc4cc[n+]3c(C)c2cc1OC` (tested in a mixture with another compound) here?
The TGI was greater than 100 µM.

How did the TGI turn out when `CCN(CC)C1CC(O[C@H]2C[C@](O)(C(=O)CO)Cc3c(O)c4c(c(O)c32)C(=O)c2c(OC)cccc2C4=O)OC(C)C1O` (some centres undefined) was run?
Its TGI is 0.394 µM.

Test system: U251 CNS
Assay: NCI tumour cell line growth inhibition, 48 h

With `CC(=O)O[C@H]1CCC2[C@@H]3CC[C@]4(C)CC(=O)C=C[C@]4(C)C3CC[C@@]21C` (some centres undefined) as the compound, how does the TGI read?
The TGI was 33.1 µM.

How did the TGI turn out when `O=C(CCc1nc(=S)[nH][nH]1)Nc1ccccc1Cl` was run?
Its TGI is greater than 100 µM.

Which TGI does the source give for `O=C(CC(=O)n1nc(-c2ccccc2)c(N=Nc2ccc(Cl)cc2)c1-c1ccccc1)Nc1ccc(Cl)cc1` here?
The TGI was greater than 100 µM.

`COC(=O)C12CC3CC(CC(C(=O)O)(C3)C1)C2` was tested. Which TGI did it give?
The TGI was greater than 100 µM.

For `CCCCCCc1cc(C(=O)Nc2ccc(Cl)cc2)nc(=S)[nH]1`, which TGI is on record?
Its TGI is greater than 100 µM.

How did the TGI turn out when `COc1cc2cc3c4cc(OC)c(OC)cc4cc[n+]3c(C)c2cc1OC` (tested in a mixture with another compound) was run?
Its TGI is greater than 100 µM.

For `CCN(CC)C1CC(O[C@H]2C[C@](O)(C(=O)CO)Cc3c(O)c4c(c(O)c32)C(=O)c2c(OC)cccc2C4=O)OC(C)C1O` (some centres undefined), which TGI is on record?
The TGI was 1.19 µM.

Test system: MDA-N
Assay: NCI tumour cell line growth inhibition, 48 h

`CC(=O)O[C@H]1CCC2[C@@H]3CC[C@]4(C)CC(=O)C=C[C@]4(C)C3CC[C@@]21C` (some centres undefined) was tested. Which TGI did it give?
Its TGI is 74.7 µM.

Which TGI does the source give for `COc1cc2cc3c4cc(OC)c(OC)cc4cc[n+]3c(C)c2cc1OC` (tested in a mixture with another compound) here?
The TGI was greater than 100 µM.

Test system: T-47D breast
Assay: NCI tumour cell line growth inhibition, 48 h

With `COc1cc2cc3c4cc(OC)c(OC)cc4cc[n+]3c(C)c2cc1OC` (tested in a mixture with another compound) as the compound, how does the TGI read?
Its TGI is greater than 100 µM.

Test system: NCI-H226 lung
Assay: NCI tumour cell line growth inhibition, 48 h

Which TGI does the source give for `CC(=O)O[C@H]1CCC2[C@@H]3CC[C@]4(C)CC(=O)C=C[C@]4(C)C3CC[C@@]21C` (some centres undefined) here?
Its TGI is greater than 77.7 µM.

How did the TGI turn out when `O=C(CCc1nc(=S)[nH][nH]1)Nc1ccccc1Cl` was run?
The TGI was greater than 100 µM.

How did the TGI turn out when `O=C(CC(=O)n1nc(-c2ccccc2)c(N=Nc2ccc(Cl)cc2)c1-c1ccccc1)Nc1ccc(Cl)cc1` was run?
The TGI was greater than 100 µM.

For `COc1cc2cc3c4cc(OC)c(OC)cc4cc[n+]3c(C)c2cc1OC` (tested in a mixture with another compound), which TGI is on record?
Its TGI is greater than 45.6 µM.

With `CCN(CC)C1CC(O[C@H]2C[C@](O)(C(=O)CO)Cc3c(O)c4c(c(O)c32)C(=O)c2c(OC)cccc2C4=O)OC(C)C1O` (some centres undefined) as the compound, how does the TGI read?
The TGI was 0.044 µM.

Test system: HL-60(TB) leukemia
Assay: NCI tumour cell line growth inhibition, 48 h

How did the TGI turn out when `CC(=O)O[C@H]1CCC2[C@@H]3CC[C@]4(C)CC(=O)C=C[C@]4(C)C3CC[C@@]21C` (some centres undefined) was run?
The TGI was 66.7 µM.

For `O=C(CCc1nc(=S)[nH][nH]1)Nc1ccccc1Cl`, which TGI is on record?
The TGI was greater than 100 µM.

Which TGI does the source give for `O=C(CC(=O)n1nc(-c2ccccc2)c(N=Nc2ccc(Cl)cc2)c1-c1ccccc1)Nc1ccc(Cl)cc1` here?
The TGI was greater than 100 µM.

For `COC(=O)C12CC3CC(CC(C(=O)O)(C3)C1)C2`, which TGI is on record?
The TGI was greater than 100 µM.

How did the TGI turn out when `CCCCCCc1cc(C(=O)Nc2ccc(Cl)cc2)nc(=S)[nH]1` was run?
The TGI was greater than 100 µM.

With `COc1cc2cc3c4cc(OC)c(OC)cc4cc[n+]3c(C)c2cc1OC` (tested in a mixture with another compound) as the compound, how does the TGI read?
The TGI was greater than 100 µM.

How did the TGI turn out when `CCN(CC)C1CC(O[C@H]2C[C@](O)(C(=O)CO)Cc3c(O)c4c(c(O)c32)C(=O)c2c(OC)cccc2C4=O)OC(C)C1O` (some centres undefined) was run?
Its TGI is 0.533 µM.

Test system: OVCAR-5 ovarian
Assay: NCI tumour cell line growth inhibition, 48 h

Which TGI does the source give for `CC(=O)O[C@H]1CCC2[C@@H]3CC[C@]4(C)CC(=O)C=C[C@]4(C)C3CC[C@@]21C` (some centres undefined) here?
The TGI was greater than 100 µM.

Which TGI does the source give for `O=C(CCc1nc(=S)[nH][nH]1)Nc1ccccc1Cl` here?
The TGI was greater than 100 µM.

How did the TGI turn out when `O=C(CC(=O)n1nc(-c2ccccc2)c(N=Nc2ccc(Cl)cc2)c1-c1ccccc1)Nc1ccc(Cl)cc1` was run?
Its TGI is greater than 100 µM.

How did the TGI turn out when `COC(=O)C12CC3CC(CC(C(=O)O)(C3)C1)C2` was run?
Its TGI is greater than 100 µM.

For `CCCCCCc1cc(C(=O)Nc2ccc(Cl)cc2)nc(=S)[nH]1`, which TGI is on record?
Its TGI is 85.8 µM.

Which TGI does the source give for `COc1cc2cc3c4cc(OC)c(OC)cc4cc[n+]3c(C)c2cc1OC` (tested in a mixture with another compound) here?
The TGI was greater than 100 µM.

How did the TGI turn out when `CCN(CC)C1CC(O[C@H]2C[C@](O)(C(=O)CO)Cc3c(O)c4c(c(O)c32)C(=O)c2c(OC)cccc2C4=O)OC(C)C1O` (some centres undefined) was run?
The TGI was 0.561 µM.

Test system: HCT-15 colon
Assay: NCI tumour cell line growth inhibition, 48 h

`CC(=O)O[C@H]1CCC2[C@@H]3CC[C@]4(C)CC(=O)C=C[C@]4(C)C3CC[C@@]21C` (some centres undefined) was tested. Which TGI did it give?
Its TGI is 38.7 µM.

How did the TGI turn out when `O=C(CCc1nc(=S)[nH][nH]1)Nc1ccccc1Cl` was run?
Its TGI is 41.3 µM.

With `O=C(CC(=O)n1nc(-c2ccccc2)c(N=Nc2ccc(Cl)cc2)c1-c1ccccc1)Nc1ccc(Cl)cc1` as the compound, how does the TGI read?
The TGI was greater than 55.8 µM.

`COC(=O)C12CC3CC(CC(C(=O)O)(C3)C1)C2` was tested. Which TGI did it give?
Its TGI is greater than 100 µM.

For `CCCCCCc1cc(C(=O)Nc2ccc(Cl)cc2)nc(=S)[nH]1`, which TGI is on record?
The TGI was greater than 1 µM.

Which TGI does the source give for `COc1cc2cc3c4cc(OC)c(OC)cc4cc[n+]3c(C)c2cc1OC` (tested in a mixture with another compound) here?
Its TGI is greater than 100 µM.

`CCN(CC)C1CC(O[C@H]2C[C@](O)(C(=O)CO)Cc3c(O)c4c(c(O)c32)C(=O)c2c(OC)cccc2C4=O)OC(C)C1O` (some centres undefined) was tested. Which TGI did it give?
Its TGI is 3.54 µM.
